Holding throughout (format): in vivo
The subject of one data set is Triticum aestivum. Briefly: Example C: selectivity test in major crops, post-emergence application. The settings on record: crop (Blé), 24 days, score 0-5, 0 or 1 = selective. An excerpt: (§1) Dans des pots de 7 x 7 x 8 cm remplis de terre agricole légère, on sème un nombre de graines déterminé en fonction de l'espèce végétale et de la grosseur de la graine.
(§2) On recouvre ensuite les graines d'une couche de terre d'environ 3 mm d'épaisseur et on laisse germer la graine jusqu'à ce qu'elle donne naissance à une plantule au stade convenable. Le stade de traitement pour les graminées est le stade "deuxième feuille en formation". Le stade de traitement pour les dicotylédones, est le stade "cotylédons étalés, première feuille vraie en développement".
(§3) Les pots sont alors traités par pulvérisation de bouillie en quantité correspondant à une dose volumique d'application de 500 l/ha et contenant la matière active à la concentration désirée.
(§4) La bouillie a été préparée de la même manière qu'à l'exemple A.
(§5) Les pots traités sont ensuite placés dans des bacs destinés à recevoir l'eau d'arrosage, en subirrigation, et maintenus pendant 24 jours à température ambiante sous 70 % d'humidité relative.
(§6) Au bout de 24 jours, on mesure un pourcentage (D) de destruction du nombre de pieds dans le pot traité par rapport au nombre de plantes dans les pots non traités (témoin). On mesure, sur les plantes traitées restantes, le pourcentage de réduction de taille (RT) par rapport aux plantes témoin.
(§7) Le pourcentage de volume foliaire non détruit par le produit est donc donné par la formule : [formula]
(§8) Cette valeur A est transformée en notation de 0 à 5 selon l'échelle suivante :
(§9) Ainsi, un produit est jugé comme sélectif vis à vis de la culture lorsque la valeur A notée est de 0 ou 1.
(§10) Les résultats obtenus sont présentés dans l'exemple C pour des doses d'application comprises entre 0,5 et 4 kg de matière active par hectare selon les produits.

In a further data set the test system is Oryza sativa. Described as above. The settings on record: crop (Riz), 24 days, score 0-5, 0 or 1 = selective.
From the text: as §1, §2, §3, §4, §5, §6, §7, §8, §9, §10

The next data set relates to Ipomea pupurea. Described as above.
From the text: as §1, §2, §3, §4, §5, §6, §7, §8, §9, §10

The next data set deals with Zea mays. The description is as above. The settings on record: crop (Maïs), 24 days, score 0-5, 0 or 1 = selective.
From the text: as §1, §2, §3, §4, §5, §6, §7, §8, §9, §10

The subject of another data set is Sesbania exaltata. Described as above.
From the text: as §1, §2, §3, §4, §5, §6, §7, §8, §9, §10

The subject of data set [1] is Sinapis alba. The data set is described as above.
From the text: as §1, §2, §3, §4, §5, §6, §7, §8, §9, §10

A further data set concerns Xanthium pennsylvanicum. The data set is described as above.
From the text: as §1, §2, §3, §4, §5, §6, §7, §8, §9, §10

The subject of data set [2] is Solanum nigrum. The description is as above.
From the text: as §1, §2, §3, §4, §5, §6, §7, §8, §9, §10

A further data set relates to Digitaria sanguinalis. As to the kind of experiment: Example B: post-emergence herbicidal application, pot test.
From the text: as §1
(§11) On recouvre ensuite les graines d'une couche de terre d'environ 3 mm d'épaisseur et on laisse germer la graine jusqu'à ce qu'elle donne naissance à une plantule au stade convenable. Le stade de traitement pour les graminées est le stade "deuxième feuille en formation ". Le stade de traitement pour les dicotylédones, est le stade "cotylédons étalés, première feuille vraie en développement".
as §3
(§12) La bouille a été préparée de la même manière qu'à l'exemple A.
as §5, §6
(§13) Le pourcentage du volume foliaire non détruit par le produit est donc donné par la formule : [formula]
as §8
(§14) Les résultats obtenus sont présentés après le tableau A pour des doses d'application de 4000 g/ha.

For the next data set, the system named is Lolium multiflorum. Described as above.
From the text: as §1, §11, §3, §12, §5, §6, §13, §8, §14

The test system of data set [3] is Sinapis alba. The description is as above.
From the text: as §1, §11, §3, §12, §5, §6, §13, §8, §14

A further data set concerns Ipomea purpurea. The data set is described as above.
From the text: as §1, §11, §3, §12, §5, §6, §13, §8, §14

Another data set has as its system Echinochloa crusgalli. The data set is described as above. The settings on record: 4000 g/ha, 576 h.
From the text: as §1, §11, §3, §12, §5, §6, §13, §8, §14

Data set [4] relates to Solanum nigrum. The description is as above.
From the text: as §1, §11, §3, §12, §5, §6, §13, §8, §14

The mark [5] stands for this setting: weed, dose 2 kg/ha, 24 days, score 0-5.
Setting [6] is: 4 kg/ha, rated after 24 days, score 0-5 from % leaf volume not destroyed.
For ACTIVITE HERBICIDE DE POST LEVEE O R Y in this document: ranges in brackets are in %.
For ACTIVITE HERBICIDE DE POST LEVEE T R Z in this document: ranges in brackets are in %.
For ACTIVITE HERBICIDE DE POST LEVEE Z E A in this document: ranges in brackets are in %.

As for `CN(C)S(=O)(=O)n1nc(-c2ccccc2)nc1-c1ncccc1C(=O)O` [compound 1, Sel d'isopropylamine de 3 -(3 - carboxy 2 - pyridyl) 2 - N,N dimethyl sulfamoyl 5 - phényl 1,2,4 - triazole], in the data set on Triticum aestivum (dose 1 kg/ha), the “ACTIVITE HERBICIDE DE POST LEVEE T R Z” value was 0 (90 à 100). The “ACTIVITE HERBICIDE DE POST LEVEE O R Y” value with Oryza sativa (dose 1 kg/ha) is reported as 0 (90 à 100). Moreover, the “ACTIVITE HERBICIDE DE POST LEVEE I P O” value with Ipomea pupurea (1000 g/ha, 576 h) is 4 (10 à 30). The “ACTIVITE HERBICIDE DE POST LEVEE Z E A” value with Zea mays (dose 1 kg/ha) is 0 (90 à 100). In addition, the “ACTIVITE HERBICIDE DE POST LEVEE S E S” value in the data set on Sesbania exaltata (1000 g/ha, 576 h) was 5 (O à 10). In addition, in the data set with Sinapis alba [1] (1000 g/ha, 576 h), the “ACTIVITE HERBICIDE DE POST LEVEE S I N” value is on record as 5 (O à 10). For the same compound, in the data set on Xanthium pennsylvanicum (1000 g/ha, 576 h), the “ACTIVITE HERBICIDE DE POST LEVEE X A N” value was 4 (10 à 30). Moreover, the “ACTIVITE HERBICIDE DE POST LEVEE S O L” value in the data set on Solanum nigrum [2] (1000 g/ha, 576 h) was 5 (O à 10). In addition, the “ACTIVITE DE POST-LEVEE DIG” value in the data set with Digitaria sanguinalis (4000 g/ha, 576 h) is listed as 0 (90 à 100). Moreover, the “ACTIVITE DE POST-LEVEE LOL” value with Lolium multiflorum (4000 g/ha, 576 h) is listed as 0 (90 à 100). In addition, the “ACTIVITE DE POST-LEVEE SIN” value in the data set with Sinapis alba [3] (4000 g/ha, 576 h) was 5 (O à 10). For the same compound, the “ACTIVITE DE POST-LEVEE IPO” value in the data set on Ipomea purpurea (4000 g/ha, 576 h) was 3 (30 à 50). In the data set on Echinochloa crusgalli, the “ACTIVITE DE POST-LEVEE ECH” value is listed as 0 (90 à 100). For the same compound, in the data set with Solanum nigrum [4] (4000 g/ha, 576 h), the “ACTIVITE DE POST-LEVEE SOL” value was 5 (O à 10).

As to `CN(C)S(=O)(=O)n1nc(-c2ccccc2)nc1-c1ncccc1C(=O)O` [compound 7, Acide 3 - (3 - carboxy 2 - pyridyl) 2 - N,N - diméthyl sulfamoyl 5 - phényl 1,2,4 -triazole], in the data set on Triticum aestivum (dose 2 kg/ha), the “ACTIVITE HERBICIDE DE POST LEVEE T R Z” value is recorded as 0 (90 à 100). Moreover, the “ACTIVITE HERBICIDE DE POST LEVEE O R Y” value in the data set with Oryza sativa (dose 2 kg/ha) is reported as 0 (90 à 100). Also, the “ACTIVITE HERBICIDE DE POST LEVEE I P O” value in the data set with Ipomea pupurea (weed, post-emergence, dose 2 kg/ha, 24 days, score 0-5) was 4 (10 à 30). Besides, the “ACTIVITE HERBICIDE DE POST LEVEE Z E A” value in the data set with Zea mays (dose 2 kg/ha) was 0 (90 à 100). In addition, the “ACTIVITE HERBICIDE DE POST LEVEE S E S” value in the data set on Sesbania exaltata (setting [5]) was 5 (O à 10). In addition, the “ACTIVITE HERBICIDE DE POST LEVEE S I N” value with Sinapis alba [1] (setting [5]) is 5 (O à 10). Further, in the data set on Xanthium pennsylvanicum (setting [5]), the “ACTIVITE HERBICIDE DE POST LEVEE X A N” value was 4 (10 à 30). Further, in the data set on Solanum nigrum [2] (setting [5]), the “ACTIVITE HERBICIDE DE POST LEVEE S O L” value is 4 (10 à 30). For the same compound, the “ACTIVITE DE POST-LEVEE DIG” value in the data set with Digitaria sanguinalis (setting [6]) is on record as 1 (70 à 90). In addition, in the data set with Lolium multiflorum (setting [6]), the “ACTIVITE DE POST-LEVEE LOL” value was 1 (70 à 90). Further, the “ACTIVITE DE POST-LEVEE SIN” value in the data set with Sinapis alba [3] (setting [6]) is given as 5 (O à 10). In the data set on Ipomea purpurea (setting [6]), the “ACTIVITE DE POST-LEVEE IPO” value is reported as 4 (10 à 30). Moreover, in the data set on Solanum nigrum [4] (setting [6]), the “ACTIVITE DE POST-LEVEE SOL” value was 5 (O à 10).

For the compound `CN(C)S(=O)(=O)n1nc(-c2cccc(Cl)c2)nc1-c1ncccc1C(=O)O` [compound 9], the “ACTIVITE HERBICIDE DE POST LEVEE T R Z” value in the data set with Triticum aestivum (dose 0,5 kg/ha) is listed as 0 (90 à 100). Moreover, the “ACTIVITE HERBICIDE DE POST LEVEE O R Y” value in the data set with Oryza sativa (dose 0,5 kg/ha) is on record as 1 (70 à 90). Further, the “ACTIVITE HERBICIDE DE POST LEVEE I P O” value with Ipomea pupurea (500 g/ha, 576 h) was 3 (30 à 50). In addition, the “ACTIVITE HERBICIDE DE POST LEVEE Z E A” value in the data set on Zea mays (dose 0,5 kg/ha) is recorded as 2 (50 à 70). For the same compound, the “ACTIVITE HERBICIDE DE POST LEVEE S E S” value in the data set with Sesbania exaltata (500 g/ha, 576 h) was 5 (O à 10). For the same compound, the “ACTIVITE HERBICIDE DE POST LEVEE S I N” value in the data set on Sinapis alba [1] (500 g/ha, 576 h) is 3 (30 à 50). The “ACTIVITE HERBICIDE DE POST LEVEE X A N” value in the data set on Xanthium pennsylvanicum (500 g/ha, 576 h) was 3 (30 à 50). Also, the “ACTIVITE HERBICIDE DE POST LEVEE S O L” value with Solanum nigrum [2] (500 g/ha, 576 h) is 4 (10 à 30). The “ACTIVITE DE POST-LEVEE DIG” value with Digitaria sanguinalis (4000 g/ha, 576 h) is reported as 2 (50 à 70). Also, in the data set with Lolium multiflorum (4000 g/ha, 576 h), the “ACTIVITE DE POST-LEVEE LOL” value is 0 (90 à 100). Also, the “ACTIVITE DE POST-LEVEE SIN” value with Sinapis alba [3] (4000 g/ha, 576 h) was 4 (10 à 30). For the same compound, the “ACTIVITE DE POST-LEVEE IPO” value with Ipomea purpurea (4000 g/ha, 576 h) is 3 (30 à 50). In addition, in the data set on Echinochloa crusgalli, the “ACTIVITE DE POST-LEVEE ECH” value is 2 (50 à 70). Besides, the “ACTIVITE DE POST-LEVEE SOL” value in the data set with Solanum nigrum [4] (4000 g/ha, 576 h) is on record as 3 (30 à 50).

(Values after patent EP0429372A1, “2-Azolyl nicotinate derivatives as herbicides” (RHONE-POULENC AGROCHIMIE, priority 1989, dated 1991).)
